Data published in patent US7749534B2, “Pharmaceutical composition comprising oxoplatin, the salts and derivatives thereof” (Riemser Arzneimittel AG, priority 2003, dated 2010).

Assays:
10 cell lines = experiment: Formazan test, mean over 10 cell lines (Table 4); format: cell-based, human; conditions: mean ±SEM over the 10 cell lines of Table 4
Description: (§1) The effect of cis-oxoplatin Ca and cis-oxoplatin was compared on 10 cell lines (Table 4).
(§2) (IC50 values specified in μg/ml; the test was performed as a formazan test).

CaCo-2 Colon = experiment: Formazan test, cis-oxoplatin vs cis-oxoplatin Ca; format: cell-based, human; conditions: Table 4, formazan test
Description: as §1, §2

SW480 Colon = experiment: Formazan test, cis-oxoplatin vs cis-oxoplatin Ca; format: cell-based, human; conditions: Table 4, formazan test
Description: as §1, §2

MDA-MB-435 Breast = experiment: Formazan test, cis-oxoplatin vs cis-oxoplatin Ca; format: cell-based, human; conditions: Table 4, formazan test
Description: as §1, §2

BT20 Breast = experiment: Formazan test, cis-oxoplatin vs cis-oxoplatin Ca; format: cell-based, human; conditions: Table 4, formazan test
Description: as §1, §2

Colo205 Colon = experiment: Formazan test, cis-oxoplatin vs cis-oxoplatin Ca; format: cell-based, human; conditions: Table 4, formazan test
Description: as §1, §2

CRO2B Carcinoid = experiment: Formazan test, cis-oxoplatin vs cis-oxoplatin Ca; format: cell-based, human; conditions: Table 4, formazan test
Description: as §1, §2

Du145 Prostate = experiment: Formazan test, cis-oxoplatin vs cis-oxoplatin Ca; format: cell-based, human; conditions: Table 4, formazan test
Description: as §1, §2

BxPC3 Pancreas = experiment: Formazan test, cis-oxoplatin vs cis-oxoplatin Ca; format: cell-based, human; conditions: Table 4, formazan test
Description: as §1, §2

HT29 Colon = experiment: Formazan test, cis-oxoplatin vs cis-oxoplatin Ca; format: cell-based, human; conditions: Table 4, formazan test
Description: as §1, §2

T47D Breast = experiment: Formazan test, cis-oxoplatin vs cis-oxoplatin Ca; format: cell-based, human; conditions: Table 4, formazan test
Description: as §1, §2

[1] = Platinum in the kidneys after injection; format: in vivo; conditions: 20 days after injection
Description: A pharmaceutical agent comprising cis-diammoniumdichloro-trans-dihydroxoplatinum(IV) and/or its salts or derivatives incorporated in the base materials defined according to the invention enables effective treatment of tumors. […] In a particularly preferred fashion, salts are used, especially potassium, lithium, sodium, magnesium, barium, zinc, manganese, silver, copper, vanadium or calcium salts, wherein the anions can be e.g. chlorides, sulfates, phosphates, nitrates or carbonates or others. Other elements capable of forming salts are well-known to those skilled in the art, e.g. all elements from the main groups I to V of the Periodic Table of the Elements, as well as the elements from the subgroups I to VIII; all of the above-mentioned elements of the Periodic Table of the Elements can form cis-oxoplatinum salts.

[2] = test system: HT29, SW480, SK-OV4, PC3, SIM, CaCo-2, DU145 and CRO2B cells; experiment: Growth inhibition, cis-oxoplatin vs sodium salt, summary over cell lines (Table 2); format: cell-based, human; conditions: CaCo-2, DU145, CRO2B
Description: (§3) Growth inhibition tests on various human cell lines show the different activities of cisplatin, cis-oxoplatin and oxaliplatin. […] The following Table illustrates the results produced with cisplatin, oxoplatin, carboplatin and oxaliplatin (the values specified are IC50 values in μg/ml, i.e., the concentration where 50% of the cells survive, nd=not determined; res=resistant=non-sensitive or IC50 value cannot be determined at a concentration of up to 40 μg/ml; IC=inhibition concentration).
The activities differ according to the cell line.

[3] = test system: tumor rats developing both internal and external tumors; experiment: Therapeutic effect of tablets, ointments and infusion solutions in tumor rats; format: in vivo
Description: In a first test series, tablets, ointments and infusion solutions were tested on various tumor rats developing both internal and external tumors. The other drugs according to the invention were tested in additional, subsequent test series. […] In a preparation of 5 mg/ml solution, the infusion solution included 5 mg of cis-oxoplatin, 9 mg of benzyl alcohol, 2 mg of Polysorbate 80, 650 mg of 70% sorbitol solution, and 500 mg of water.
The tablets were administered in the form of a feed admixture. Infusion of the infusion solution was effected according to common laboratory practice via infusion tube.
Tumor effectiveness was established by weight determination and measuring the outer areas of degenerate tissue. As a comparison, the tumor effectiveness was also tested using an infusion solution comprising oxoplatin in sodium chloride solution and by means of direct oral administration of oxoplatin and by applying oxoplatin powder placed on the tumor area on the back of the laboratory animal by means of a bandage. Furthermore, tablets comprising cis-oxoplatin and sodium hydrogen carbonate or sodium alginate were tested.

trypsin = biological target: T1, trypsin (Bos taurus, UniProt P00760); experiment: Protease inhibition; format: biochemical; conditions: at concentrations comparable to cisplatin
T1 construct: gene PRSS1
T1 sequence (P00760 24-246): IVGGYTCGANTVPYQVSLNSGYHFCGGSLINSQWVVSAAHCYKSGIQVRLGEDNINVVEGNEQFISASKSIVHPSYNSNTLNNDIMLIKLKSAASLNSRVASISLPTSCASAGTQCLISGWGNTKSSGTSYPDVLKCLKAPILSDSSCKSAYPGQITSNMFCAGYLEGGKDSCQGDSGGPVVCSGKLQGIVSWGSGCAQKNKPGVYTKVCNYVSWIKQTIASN
Description: (§4) The pharmaceutical agents according to the invention, which can be produced using said kit, are capable of binding directly to a DNA. The cis-platinum compounds according to the invention have an octahedral configuration. Consequently, cis-oxoplatin in the meaning of the invention can form both intra- and inter-strand DNA complexes. Due to the specific structure of cis-oxoplatin, in contrast to cisplatin, the compounds of the invention form multiple bonds with DNA strands. Owing to the inter-strand-crosslinker complexes and intra-strand-crosslinker complexes, the compounds of the invention show advantageous specific cytostatic effects in anti-tumor therapy. The DNA adducts of the compounds according to the invention show higher charge of the platinum central atom and further have two additional ligands bound to this center. […] Potency and effectiveness of the inventive pharmaceutical agents comprising cis-oxo-platinum(IV) are largely independent of the form of application of the agents. The agents can be administered perorally, orally, rectally, subcutaneously, intramuscularly, intravenously and intraperitoneally.

α-chymotrypsin = experiment: Protease inhibition; format: biochemical; conditions: at concentrations comparable to cisplatin
Description: as §4

various human cell lines = experiment: Growth inhibition tests, overall comparison (Table 1 panel); format: cell-based
Description: as §3

panel of cell lines = experiment: Cytotoxic activity of TRAXO, summary over 19 cell lines; format: cell-based, human; conditions: for sensitivity of cell lines: T-47D and BxPC3
Description: trans-Oxoplatin was tested on a panel of cell lines, using double steps and an initial concentration of 40 μg/ml. As the IC50 values were not reached in most cases, cell survival at the highest concentration is indicated.
Cell lines sensitive to cis-oxoplatin, such as T-47D and BxPC3, are non-sensitive to TRAXO. The salts of the trans-oxoplatin compounds may have a different therapeutic potential and different effectiveness against particular human cancer cells, cell lines and tumors.

Compound	IC50 (CaCo-2 Colon) [µg/mL]	IC50 (SW480 Colon) [µg/mL]	IC50 (MDA-MB-435 Breast) [µg/mL]	IC50 (BT20 Breast) [µg/mL]	IC50 (Colo205 Colon) [µg/mL]	IC50 (CRO2B Carcinoid) [µg/mL]	IC50 (Du145 Prostate) [µg/mL]	IC50 (BxPC3 Pancreas) [µg/mL]	IC50 (HT29 Colon) [µg/mL]	IC50 (T47D Breast) [µg/mL]	level of platinum compound in the kidneys [1]	sensitivity of cell lines (panel of cell lines)	other results
N.N.N.N.[Ca+2].[O-][Pt]([OH])([Cl])[Cl].[O-][Pt]([OH])([Cl])[Cl] [Oxoplatin Ca, cis-oxoplatin calcium salt]	0.87	2.5	12.0	3.5	13.5	2.20	14.5	30.0	8.0	3.6	–	–	IC50 (±SEM) mean value for all cell lines (10 cell lines): 9.1 ± 2.8 µg/mL
N.N.[Cl-].[Cl-].[OH-].[OH-].[Pt+4] [cis-Oxoplatin, cis-diammoniumdichloro-trans-dihydroxoplatinum(IV)]	1.52	8.2	16.5	3.75	29.0	3.0	19.0	26.0	13.5	2.5	largely free of said compound	sensitive	IC50 values of these cells (mean) [2]: 10.5 ± 6.4 µg/mL; elimination [3]: rapidly eliminated; irritations in the surrounding tissue [3]: irritations in the surrounding tissue; tumor growth ([3]; no base materials): reduction of tumor growth; inhibition of proteases (trypsin): does not inhibit; inhibition of proteases (α-chymotrypsin): does not inhibit; activity compared with oxaliplatin and carboplatin (various human cell lines): activity similar to that of oxaliplatin, but higher activity than carboplatin
[NH2][Pt]([NH2])([OH])([OH])([Cl])[Cl] [TRAXO, trans-Oxoplatin]	–	–	–	–	–	–	–	–	–	–	–	non-sensitive	activity against cell lines (panel of cell lines; SW 620, G-292, HOS, ACHN, HL-60, WI-38): considerable activity
N.N.[Cl][Pt][Cl] [Cis-platin, cisplatin, reference compound]	–	–	–	–	–	–	–	–	–	–	approximately as high as one hour following injection	–	–
